Here are results for four compounds from US12697331B2, “Methods of use of T-type calcium channel modulators” (PRAXIS PRECISION MEDICINES, INC., priority 2020, dated 2026).

For data set [1], the system named is essential tremor. The conditions noted are these: cited from earlier work; for Efficacy for treating essential tremors in clinical trials: adverse effects led to patient discontinuance.
For data set [2] the following is noted: cited from earlier work.
A short description of data set [3]: Phase 1 single and multiple ascending doses of formulation 3: safety and tolerability. The format is in vivo, human. The conditions noted are these: single 60 mg, 6 healthy volunteers, no titration. The procedure:
This was a 2-part, Phase 1 double blind, placebo controlled trial to assess the safety, tolerability, pharmacokinetics, and pharmacodynamics (including the KSS, the KDT, the SQSQ and 24-hour EEG recordings), of single, ascending (Part A: 20, 40, and 60 mg) and multiple, ascending (Part B: 20 and 40 mg for 8 days) doses of the 20 mg tablet (formulation 3) in healthy participants. […] Variability in Cmax and AUC increased with increasing dose following a single oral dose of the 20 mg tablet formulation (formulation 3) (FIG. 16).
Adverse events for the doses of 20 and 40 mg were transient and occurred at a rate similar to placebo. The following TEAEs were observed, all of which were mild to moderate: […]

A short description of data set [4]: Within-participant escalating dose trial Part A (5, 10, 20 mg): plasma pharmacokinetics. Type of data set: in vivo, human. The procedure: (§1) In Part A, an open label trial was conducted.
Data set [5] can be described thus: Within-participant escalating dose trial Part A: safety and tolerability (TEAEs). Type of data set: in vivo, human. The procedure:
as §1

Data set [6] is described as follows: Within-participant escalating dose trial Part B: safety and tolerability (TEAEs). Type of data set: in vivo, human.
The nature of data set [7]: Within-participant escalating dose trial Part B (20-120 mg titration): pharmacokinetics. Particulars: titrated dosing schedule.
Experimental: A trial was conducted to study the safety, tolerability, pharmacokinetics and pharmacodynamics of the compound of formula (I) in healthy participants. Each participant completed 3 study periods: Screening, Treatment period (12 or 31 days), and Safety follow-up.
In Part B, a randomized controlled trial was conducted. […] Patients were allowed to receive the compound of formula (I) daily at each of 60 mg, 80 mg, and 100 mg dose levels for an extended period of up to 2 days.
Patients were discharged on D33 after all study assessments were completed and scheduled for Safety Follow-up on Day 36 (±1 day) via telephone call. Pharmacokinetics of the compound of formula (I) was evaluated by performing LC/MS quantification of levels of the compound in plasma and urine. […] Phamacokinetic parameters determined for the compound of formula (I) include, but are not limited to, AUCt, AUCinf, AUCtau, Cmax, tmax, t1/2, CL/F and Vd/F.
Where [8] appears, read: 28-day essential tremor study (WO 2020/072773).

As to `NS(=O)(=O)Cc1noc2ccccc12` [zonisamide], the “Efficacy for treating essential tremors in clinical trials” value in data set [1] is reported as “effective”.
For the compound `CC(C)c1ccc(CC(=O)N[C@H](C)c2ccc(OCC(F)(F)F)cn2)cc1` [CX-8998], in data set [1] (setting [8]), the “Discontinuation due to intolerability of adverse events” value is recorded as 17% and the Discontinuation rate is recorded as 23%. In addition, the “Titrated daily dose reached” value in data set [2] (Papapetropoulos et al. 2019, 2021) was 20 mg. The “Highest non-titrated dose safely administered to patients” value in data set [2] (single doses, WO 2020/072773) is 16 mg.
As for `CC(C)(C)NC(=O)CN1CCC(CNC(=O)c2cc(F)cc(Cl)c2)CC1` [compound of formula (I), N-((1-(2-(tert-butylamino)-2-oxoethyl)piperidin-4-yl)methyl)-3-chloro-5-fluorobenzamide], the Tolerability entry in data set [3] is on record as “not tolerated”. Also, the “Time the compound remained quantifiable in plasma” value in data set [4] (5 mg dose, 24 hour sampling period) was at least 24 h. Besides, the “Time by which plasma concentrations were quantifiable” value in data set [4] (single 5 mg dose, healthy volunteers) is at most 0.50 h. For the same compound, in data set [5] (5 mg (N = 8)), the “Participants with at least one TEAE” value was 5 (62.5%) n (%); the “TEAE: Dry eye” value is 1 (12.5%) n (%); the “TEAE: Eye disorders” value is 2 (25.0%) n (%); the “TEAE: General Disorders and Administration Site Conditions” value is recorded as 3 (37.5%) n (%). For the same compound, in data set [5] (5 mg (N = 8)), the “TEAE: Headache” value is listed as 2 (25.0%) n (%), the “TEAE: Lethargy” value was 1 (12.5%) n (%), the “TEAE: Medical device site dermatitis” value is listed as 1 (12.5%) n (%) and the “TEAE: Nervous System Disorders” value is 2 (25.0%) n (%). Further, in data set [5] (5 mg (N = 8)), the “TEAE: Vessel puncture site thrombosis” value was 1 (12.5%) n (%). For the same compound, in data set [5] (10 mg (N = 8)), the “Participants with at least one TEAE” value is 5 (62.5%) n (%); the “TEAE: Dry eye” value was 2 (25.0%) n (%); the “TEAE: Eye disorders” value was 2 (25.0%) n (%); the “TEAE: General Disorders and Administration Site Conditions” value was 3 (37.5%) n (%). Further, in data set [5] (10 mg (N = 8)), the “TEAE: Headache” value was 0 n (%), the “TEAE: Lethargy” value is listed as 0 n (%), the “TEAE: Medical device site dermatitis” value is reported as 2 (25.0%) n (%) and the “TEAE: Nervous System Disorders” value is given as 0 n (%). Moreover, the “TEAE: Vessel puncture site thrombosis” value in data set [5] (10 mg (N = 8)) was 1 (12.5%) n (%). Besides, in data set [5] (20 mg (N = 8)), the “Participants with at least one TEAE” value is on record as 3 (37.5%) n (%); the “TEAE: Dry eye” value is 0 n (%); the “TEAE: Eye disorders” value is given as 0 n (%); the “TEAE: General Disorders and Administration Site Conditions” value was 1 (12.5%) n (%). Besides, in data set [5] (20 mg (N = 8)), the “TEAE: Headache” value is given as 1 (12.5%) n (%), the “TEAE: Medical device site dermatitis” value is reported as 0 n (%), the “TEAE: Nervous System Disorders” value was 1 (12.5%) n (%) and the “TEAE: Vessel puncture site thrombosis” value is reported as 0 n (%). For the same compound, in data set [5] (Overall (N = 8)), the “Participants with at least one TEAE” value was 7 (87.5%) n (%), the “TEAE: Dry eye” value is given as 3 (37.5%) n (%), the “TEAE: Eye disorders” value was 3 (37.5%) n (%) and the “TEAE: Headache” value is 3 (37.5%) n (%). Also, in data set [5] (Overall (N = 8)), the “TEAE: Lethargy” value is on record as 2 (25.0%) n (%), the “TEAE: Medical device site dermatitis” value was 3 (37.5%) n (%), the “TEAE: Nervous System Disorders” value was 3 (37.5%) n (%) and the “TEAE: Vessel puncture site thrombosis” value is 2 (25.0%) n (%). In addition, in data set [6] (human, in vivo, 31 days), the “Participants with at least one TEAE” value is recorded as 12 (100%)^ n (%), the “TEAE: Cardiac Disorders” value is 4 (33.3%) n (%), the “TEAE: Chest discomfort” value is listed as 2 (16.7%) n (%) and the “TEAE: Dizziness” value is recorded as 3 (25.0%) n (%). In data set [6] (human, in vivo, 31 days), the “TEAE: General Disorders and Administration Site Conditions” value is 6 (50.0%) n (%); the “TEAE: Headache” value is listed as 2 (16.7%) n (%); the “TEAE: Intoxicated sensation” value is 2 (16.7%) n (%); the “TEAE: Medical device site dermatitis” value was 3 (25.0%) n (%). In data set [6] (human, in vivo, 31 days), the “TEAE: Nervous System Disorders” value is on record as 5 (41.7%) n (%) and the “TEAE: Palpitations” value was 2 (16.7%) n (%). In data set [6] (in vivo), the “SAEs and severe AEs” value was “no SAEs and no severe AEs”. The “Dose levels well-tolerated with a titrated dosing schedule” value in data set [6] (titration 20 to 120 mg per day, no maximum tolerated dosage identified) is at most 120 mg per day. For the same compound, in data set [7], the “Increase of Cmax and AUC24 above values of a lower dosage not tolerated without titration” value is reported as 2-3 fold.
With `CC1(C)O[C@@H]2[C@@H](CO[C@@]3(COS(N)(=O)=O)OC(C)(C)O[C@@H]23)O1` [topiramate], the “Efficacy for treating essential tremors in clinical trials” value in data set [1] is recorded as “effective”.
